In patent US20200299783A1 (Board of Regents, The University of Texas System, priority 2019, published 2020):
“Also recorded” adds a separate entry of the source.

Key:
[1] = test system: ibrutinib-resistant MCL cell lines Maver-1 and Z-138; experiment: ROS levels by flow cytometry, ibrutinib-resistant MCL cell lines; format: cell-based, human
Method: Mitochondria membrane potential, mitochondria mass, ROS, and apoptosis analysis. MCL cells were seeded and cultured overnight before treatment to reach log phase. Respective cell lines were plated at 2×10^6 cells/well in 6-well plates in phenol-red and pyruvate-free DMEM assay medium containing 5 mM glucose (Sigma), 2 mM GlutaMAX (Gibco, ThermoFisher Scientific), and 5% dialyzed FCS (Gibco). Vehicle, IACS-0107059 (20 nM), or (1-5 μM) BPTES was added and replenished every day until the indicated time points. ROS and mitochondria membrane potential were evaluated 24 hours after treatment. […] TMRE dye fluorescence retained in the cells was detected by flow cytometry with excitation and emission of 548/574 nm. Data were analyzed with NovoExpress (ACEA Biosciences, San Diego, Calif., USA) or FlowJo10 (Tree Star, Ashland, Oreg., USA). To measure ROS levels, treated cells were harvested, stained with […] CM-H2DCF-DA (C6827, Molecular Probes, Invitrogen) in PBS for 30 min at 37° C., washed twice with PBS, and analyzed in a flow cytometer (FACS Caliber, BD Biosciences) by recording the green fluorescence of oxidized DCF. The mean fluorescence of 10,000 analyzed cells (corrected for auto fluorescence) was taken as a readout for the intracellular ROS load.

[2] = test system: ibrutinib-resistant Maver-1 MCL cells; experiment: Apoptosis assay (Annexin-V/PI), Maver-1; format: cell-based, human; settings: 72 hours, 20 nM IACS-010759 and/or 5 μM BPTES, FIGS. 5F & 11E
Method: (§1) Apoptosis assays. Annexin V-binding assay was used to detect the induction of apoptosis. Cells were seeded in 48-well plates with single agent or combination therapy for various times, or with different concentrations for 48 hours. To quantify the percentages of cells undergoing apoptosis, Annexin V-FITC was used. Briefly, cells were washed twice with cold PBS and then suspended in binding buffer at a concentration of 1×10^6 cells/mL. After incubation, 100 μL of the solution was transferred to a 5-mL tube, to which 5 μL of Annexin V-FITC and 5 μL of PI are added. The tube was gently vortexed and incubated for 15 min at room temperature in dark. At the end of the incubation, 300 μL of binding buffer was added. Flow cytometric analysis was performed immediately with a Novocyte Flow Cytometer (ACEA Biosciences, San Diego, Calif., USA). Data were analyzed with NovoExpress (ACEA Biosciences, San Diego, Calif., USA) or FlowJo10 (Tree Star, Ashland, Oreg., USA).

[3] = test system: ibrutinib-resistant Z-138 MCL cells; experiment: Apoptosis assay (Annexin-V/PI), Z-138; format: cell-based, human; settings: 72 hours, 20 nM IACS-010759 and/or 5 μM BPTES, FIGS. 5F & 11E
Method: as §1

[4] = test system: Z-138 and Maver-1 MCL cell lines; experiment: Immunoblotting of cleaved Caspase-7 and PARP; format: cell-based, human; settings: 20 nM IACS-010759 and/or 5 μM BPTES for 72 hours; FIG. 5G
Method: Cells were cultured with single agent or combination therapy in the presence or absence of caspase inhibitors. Cells were harvested, washed twice with cold PBS, and lysed with lysis buffer (Cell Signaling, Danvers, Mass., USA). Cell lysates were kept on ice for 30 min and centrifuged at 13,000 g for 10 min at 4° C. For the detection of cytosolic cytochrome c, the Cytosol Fractionation Kit (BioVision, Milpitas, Calif., USA) was utilized to acquire cytosolic fractions according to the manufacturer's instructions. Supernatants were collected, and the protein content of each fraction was determined using a Bio-Rad Bradford assay (Bio-Rad, Hercules, Calif., USA). Samples were boiled in loading buffer and separated by 10% SDS-PAGE. After electrophoresis, the proteins were transferred onto a nitrocellulose membrane (Bio-Rad), which was incubated with blocking solution (5% nonfat dry milk in PBS containing 0.05% Tween-20) for 2 h and immunoblotted with SLC16A1 (Novus, St. Louis, Mo., USA), SLC1A5, BTK, and p16INK4a, and GAPDH (Cell Signaling, Danvers, Mass., USA) antibodies. The membrane was finally visualized by incubating the membrane with a chemiluminescence Western blot kit (Pierce Biotechnology, Rockford, Ill., USA).

[5] = test system: ibrutinib-resistant MCL cell lines (Z-138 and Maver-1); experiment: Cell growth assay, ibrutinib-resistant MCL cell lines; format: cell-based, human
Method: (§2) Cells were seeded in triplicate in a 96-well plate with 2×10^5 cells per well and treated with indicated dose of single agent or two compound combination for 24-72 hours. In the last 30 min, 50 μL of CellTiter 96 Aqueous One Solution Reagent were added to the culture wells and incubated at 37° C. in 5% CO2. Light absorbance of formazan was measured at 495 nm on a universal microplate reader equipped with KC4 software (Biotek Instruments, Winooski, Vt., USA).

[6] = test system: ibrutinib-sensitive MCL cell lines (Mino and JeKo-1); experiment: Cell growth assay, ibrutinib-sensitive MCL cell lines; format: cell-based, human; settings: 72-hour incubation, FIG. 5A
Method: as §2

ETC complex I = ETC complex I activity in ibrutinib-resistant MCL cell lines; format: cell-based, human; settings: Z-138 and Maver-1; 20 nM, 24 hours; FIGS. 11A & 11B
[7] = test system: ibrutinib-resistant MCL cell lines, Z-138 and Maver-1; experiment: Mitochondria respiration (OCR, Seahorse), ibrutinib-resistant MCL cell lines; format: cell-based, human; settings: 20 nM for 1 h, FIG. 5B
Method: (§3) The oxygen consumption rate (OCR) was measured using a Seahorse XF-96 Metabolic Flux Analyzer (Seahorse Bioscience, North Billerica, Mass., USA). Briefly, MCL cells were treated with/without IACS-010759 (20 nM) for 1 h. On the day of analysis, 2-4×10^5 MCL cells/well were adhered to XF 96-well cell culture microplates (Seahorse Biosciences) pre-coated with Cell-Talc (BD Biosciences), by centrifugation at 1,000×g, without brakes for 5 min, then changed to mitochondria stress medium supplemented with 25 mM glucose, 2 mM sodium pyruvate, and 2 mM glutamine (pH 7.4), followed by incubation at 37° C. in a non-CO2 incubator for 1 h. […], FCCP (2 μM), and Rotenone/Antimycin A (0.5 μM), were loaded into drug delivery ports and injected sequentially at the indicated time points. After each injection, 4 time points were recorded with approximately 35 min between each injection. […] over time was normalized to protein content measured by sulforhodamine B (SRB) staining and plotted using Graph-Pad Prism.

[8] = test system: ibrutinib-sensitive MCL cell line, Mino; experiment: Mitochondria respiration (OCR, Seahorse), ibrutinib-sensitive Mino; format: cell-based, human; settings: 20 nM for 1 h, vs control, p=0.0832, FIG. 5B
Method: as §3

[9] = test system: ibrutinib-resistant Z-138 and Maver-1 cell lines; experiment: Mitochondria membrane potential (TMRE), ibrutinib-resistant MCL cell lines; format: cell-based, human; settings: 20 nM IACS-010759 and/or 5 μM BPTES for 24 hours; FIGS. 5C & 5D
Method: (§4) Mitochondria membrane potential, mitochondria mass, ROS, and apoptosis analysis. MCL cells were seeded and cultured overnight before treatment to reach log phase. Respective cell lines were plated at 2×10^6 cells/well in 6-well plates in phenol-red and pyruvate-free DMEM assay medium containing 5 mM glucose (Sigma), 2 mM GlutaMAX (Gibco, ThermoFisher Scientific), and 5% dialyzed FCS (Gibco). Vehicle, IACS-0107059 (20 nM), or (1-5 μM) BPTES was added and replenished every day until the indicated time points. ROS and mitochondria membrane potential were evaluated 24 hours after treatment. To determine mitochondria membrane potential (Δψm), treated cells were loaded with MitoStatus tetramethylrhodamine, ethyl ester (TMRE) (BD Biosciences) at 37° C. for 15 min and washed with PBS twice to remove residual TMRE. TMRE dye fluorescence retained in the cells was detected by flow cytometry with excitation and emission of 548/574 nm. Data were analyzed with NovoExpress (ACEA Biosciences, San Diego, Calif., USA) or FlowJo10 (Tree Star, Ashland, Oreg., USA).

[10] = test system: ibrutinib-resistant (Maver-1 and Z-138) MCL cell lines; experiment: Intracellular ATP, ibrutinib-resistant MCL cell lines; format: cell-based, human; settings: 20 nM for 24 hours; 0 nM vs 20 nM p<0.0001; FIG. 11C
Method: (§5) MCL cell lines were seeded at 1-2×10^6 cells/well in triplicate in six-well plates and incubated overnight. Next, the media were replaced with 3 mL complete RPMI-1640 medium with or without inhibitors. […] and analyzed for their glucose, glutamine and lactate content using the Glucose, Glutamine and Lactate Colorimetric Assay Kits (BioVision), respectively, according to the manufacturer's instructions. Glucose or glutamine consumption was extrapolated by subtracting the measured glucose concentrations in the media from the initial concentrations (11.1 mM glucose; 2 mM glutamine). Intracellular ATP contents from above treated cells was determined using ATP Colorimetric Assay Kit (Biovision) as outlined in the manufacturer's protocol. […]

[11] = test system: ibrutinib-resistant MCL cell lines (Maver-1 and Z-138) versus ibrutinib-sensitive (JeKo-1 and Mino); experiment: Glutamine uptake in MCL cell lines; format: cell-based, human; settings: 20 nM for 24 hours; resistant compared with sensitive cells; FIG. 11D
Method: as §5

[12] = test system: ibrutinib-sensitive MCL cell lines; experiment: ROS levels by flow cytometry, ibrutinib-sensitive MCL cell lines; format: cell-based, human; settings: FIG. 5E
Method: as §4, with “To determine mitochondria membrane potential (Δψm), treated cells were loaded with MitoStatus tetramethylrhodamine, ethyl ester (TMRE) (BD Biosciences) at 37° C. for 15 min and washed with PBS twice to remove residual TMRE.” left out
To measure ROS levels, treated cells were harvested, stained with […] CM-H2DCF-DA (C6827, Molecular Probes, Invitrogen) in PBS for 30 min at 37° C., washed twice with PBS, and analyzed in a flow cytometer (FACS Caliber, BD Biosciences) by recording the green fluorescence of oxidized DCF. The mean fluorescence of 10,000 analyzed cells (corrected for auto fluorescence) was taken as a readout for the intracellular ROS load.

[13] = test system: ibrutinib-resistant MCL PDX
Method: Histopathological analysis. Excised tissues from patients and PDX mice were fixed in 10% formalin solution, processed by standard methods, embedded in paraffin, sectioned at 5 μm, and stained with H&E. For immunohistochemical (IHC) evaluation, the tissues are stained with an antibody against human anti-CD20 (Dako, Glostrup, Denmark), counterstained with Harris hematoxylin and examined by standard light microscopy. Samples were analyzed using an Olympus BX51TF microscope equipped with UPlan FL 40×/0.75 and 20×/0.50 objective lenses (Olympus, Melville, N.Y., USA).

[14] = test system: ibrutinib-resistant high-grade B-cell lymphoma PDX

In the case of NOCC(=O)O [AOA, aminooxyacetate], the “ROS and energy stress” value ([1]; 0.5 mM AOA for 24 hours, compared with the sensitive cell lines, FIG. 10B) is reported as “marked induction of reactive oxygen species (ROS) and energy stress”.
With O=C(Cc1ccccc1)Nc1nnc(CCSCCc2nnc(NC(=O)Cc3ccccc3)s2)s1 [BPTES, bis-2-(5-phenylacetamido-1,3,4-thiadiazol-2-yl)ethyl sulfide] the apoptosis [2] was 25%, the apoptosis [3] was 44% and the “caspase 7 activation and PARP cleavage” value [4] was “induced caspase 7 activation and PARP cleavage”.
For Cc1nc(-c2nc(-c3ccc(OC(F)(F)F)cc3)no2)nn1Cc1cccc(N2CCC(S(C)(=O)=O)CC2)c1 [IACS-010759], the “inhibition of proliferation (cell growth inhibition)” value ([5]; Z-138 and Maver-1, 72-hour incubation, FIG. 5A) was “dose-dependent manner at nanomolar concentrations”, the “difference in IC50 values between the resistant and sensitive cell lines” value ([5]; cell growth, 72 h, resistant (Z-138, Maver-1) vs sensitive (Mino, JeKo-1)) was “approximately 10 fold” and the “inhibition of proliferation (cell growth inhibition)” value [6] was “very little effect”. For the same compound, the “ETC complex I activity” value (ETC complex I) was “reduced”, the “OCR (oxygen consumption rate)” value ([7]; vs DMSO-treated control) was “reduced the OCR” and the “average reduction of OCR compared with the control” value ([7]; mixed effects regression model, p<0.0001) was 358.9406 (95% CI: 321.1402-396.741). The “OCR (oxygen consumption rate)” value [8] was “little effect; also recorded: No significant difference”, the “mitochondrial potential (Δψm, TMRE)” value [9] was “decreased” and the “ATP production (intracellular ATP levels)” value [10] was “decreased”. The glutamine uptake inhibition [11] was “greater glutamine uptake inhibition”, the ROS production ([1]; Maver-1 and Z-138, IACS-010759 25 nM (text; FIG. 5E legend 20 nM) and/or 5 μM BPTES, 24 hours) was “induced ROS production” and the ROS production [12] was “not in the -sensitive cell lines”. For the same compound, the apoptosis [2] was 23%, the apoptosis [3] was 42% and the “caspase 7 activation and PARP cleavage” value [4] was “induced caspase 7 activation and PARP cleavage”. For the same compound, the toxicities ([13]; 10 mg/kg oral gavage 5 consecutive days/week) was “No apparent toxicities”, the “body weight vs vehicle control” value ([13]; 10 mg/kg oral gavage 5 consecutive days/week, p=0.3304, FIG. 6C) was “not significantly different” and the “tumor growth by tumor volume” value ([13]; 10 mg/kg oral gavage 5 consecutive days/week, vs vehicle, n=5, p<0.0001, FIG. 6A) was “completely prevented tumor growth”. The “tumor growth by human β2M levels” value ([13]; 10 mg/kg oral gavage 5 consecutive days/week, vs vehicle, n=5, p<0.0001, FIG. 6B) was “completely prevented tumor growth”, the “H&E and anti-CD20 staining of dissected tissue post-treatment” value ([13]; end of treatment, a small number of CD20+ cells remained, FIG. 6D) was “repopulation of the tumor area with fatty deposits” and the “body weight vs vehicle” value ([14]; 10 mg/kg oral gavage 5 consecutive days/week, p=0.1964, FIG. 12C) was “not significantly different”. For the same compound, the “tumor growth by tumor volume” value ([14]; IACS-010759 10 mg/kg 5 days/week (p<0.0001 vs vehicle), ibrutinib 50 mg/kg daily (p=0.7227), oral gavage, FIG. 12A) was “significantly inhibited tumor growth”, the “tumor growth by human (32M levels)” value ([14]; IACS-010759 10 mg/kg 5 days/week (p=0.0003 vs vehicle), ibrutinib 50 mg/kg daily (p=0.6911), FIG. 12B) was “significantly inhibited tumor growth” and the survival benefit ([14]; compared with vehicle- and ibrutinib-treated mice, FIG. 12D) was “greater than 20 days”. For the same compound, the “survival of the ibrutinib-resistant PDX mice” value ([14]; n=5, vs vehicle p=0.0035, vs ibrutinib p=0.0035, FIG. 12D) was “significantly prolonged the survival”.
